This test deals with r(CUG)12-MBNL1 complex. Description: Inhibition of the r(CUG)12-MBNL1 complex measured by TR-FRET. In kind it is biochemical. To be noted: 80 nM RNA, 60 nM MBNL1-His6.

Where only a bound is given, the exact number is not on record here.

For `C[C@@H](NC(=O)CN(CCN)C(=O)c1ccc(-c2nc3cc(-c4ccc5[nH]c(-c6ccc(C(=O)NCCN(C)C)cc6)nc5c4)ccc3[nH]2)cc1)C(=O)N[C@H](C)C(=O)N[C@H](C)C(=O)N[C@H](C)C(=O)N(CCNC(=O)c1ccc(-c2nc3cc(-c4ccc5[nH]c(-c6ccc(C(=O)NCCN(C)C)cc6)nc5c4)ccc3[nH]2)cc1)CC(N)=O` (single isomer, unassigned) [Compound 443], the IC50 (Table M) is 8 µM. Consider `C[C@@H](NC(=O)CNCCNC(=O)c1ccc(-c2nc3cc(-c4ccc5[nH]c(-c6ccc(C(=O)NCCN(C)C)cc6)nc5c4)ccc3[nH]2)cc1)C(=O)N[C@H](C)C(=O)N[C@H](C)C(=O)N[C@H](C)C(=O)N(CCNC(=O)c1ccc(-c2nc3cc(-c4ccc5[nH]c(-c6ccc(C(=O)NCCN(C)C)cc6)nc5c4)ccc3[nH]2)cc1)CC(N)=O` (single isomer, unassigned) [Compound 444], for which 13 µM corresponded to half-maximal inhibition (Table M) (IC50). For `CN(CCNC(=O)c1ccc2nc(-c3ccc(-c4nc5ccc(C(=O)NCCN(C)C[C@H](O)[C@@H](O)[C@H](O)[C@H](O)CO)cc5[nH]4)cc3)[nH]c2c1)CC(O)C(O)C(O)C(O)CO` (stereo in doubt) [Compound 175, 2,2′-(1,4-phenylene)bis(N-(2-(methyl((2S,3R,4R,5R)-2,3,4,5,6-pentahydroxyhexyl)amino)ethyl)-1H-benzo[d]imidazole-6-carboxamide)], the IC50 (Table M) is 49.1 µM. The compound `Nc1ccc2nc(-c3ccc(-c4nc5ccc(N)cc5[nH]4)cc3)[nH]c2c1` [Compound 2, 2,2′-(1,4-phenylene)bis(1H-benzo[d]imidazol-6-amine)] showed an IC50 (Table L) of 197 µM. `N=C(N)Nc1ccc2nc(-c3ccc(-c4nc5ccc(NC(=N)N)cc5[nH]4)cc3)[nH]c2c1` [Compound 3, 1,1′-(2,2′-(1,4-phenylene)bis(1H-benzo[d]imidazole-6,2-diyl))diguanidine] returned an IC50 (Table L) of 27 µM. Compound `CC(=O)Nc1ccc2nc(-c3ccc(-c4nc5ccc(N)cc5[nH]4)cc3)[nH]c2c1` [Compound 4, N-(2-(4-(5-amino-1H-benzo[d]imidazol-2-yl)phenyl)-1H-benzo[d]imidazol-5-yl)acetamide] gave an IC50 (Table L) greater than 200 µM.

For `Nc1ccc2nc(-c3ccc(-c4nc5ccc(Nc6ncccn6)cc5[nH]4)cc3)[nH]c2c1` [Compound 5, 2-(4-(5-amino-1H-benzo[d]imidazol-2-yl)phenyl)-N-(pyrimidin-2-yl)-1H-benzo[d]imidazol-5-amine], the IC50 (Table L) was 76 µM. Same read-out and setting: the value for `CC(=O)Nc1ccc2nc(-c3ccc(-c4nc5ccc(NC(C)=O)cc5[nH]4)cc3)[nH]c2c1` [Compound 6, N,N′-(2,2′-(1,4-phenylene)bis(1H-benzo[d]imidazole-5,2-diyl))diacetamide] was 112 µM. Regarding `CC(=O)Nc1ccc2nc(-c3ccc(-c4nc5ccc(Nc6ncccn6)cc5[nH]4)cc3)[nH]c2c1` [Compound 7, N-(2-(4-(5-(pyrimidin-2-ylamino)-1H-benzo[d]imidazol-2-yl)phenyl)-1H-benzo[d]imidazol-5-yl)acetamide], under “Table L”, the IC50 came out at 80 µM. In turn, `c1cnc(Nc2ccc3nc(-c4ccc(-c5nc6ccc(Nc7ncccn7)cc6[nH]5)cc4)[nH]c3c2)nc1` [Compound 8, 2,2′-(1,4-phenylene)bis(N-(pyrimidin-2-yl)-1H-benzo[d]imidazol-5-amine)] showed an IC50 (Table L) of 150 µM.

Where the note is “Table L”, `N#Cc1ccc2nc(-c3ccc(-c4nc5ccc(C#N)cc5[nH]4)cc3)[nH]c2c1` [Compound 9, 2,2′-(1,4-phenylene)bis(1H-benzo[d]imidazole-6-carbonitrile)] gave an IC50 of 26 µM. With `COC(=O)c1ccc2nc(-c3ccc(-c4nc5ccc(C(=O)OC)cc5[nH]4)cc3)[nH]c2c1` [Compound 10, dimethyl 2,2′-(1,4-phenylene)bis(1H-benzo[d]imidazole-6-carboxylate)], under “Table L”, the IC50 is greater than 200 µM. Turning to `O=C(O)c1ccc2nc(-c3ccc(-c4nc5ccc(C(=O)O)cc5[nH]4)cc3)[nH]c2c1` [Compound 11, 2,2′-(1,4-phenylene)bis(1H-benzo[d]imidazole-6-carboxylic acid)], the IC50 (Table L) is greater than 200 µM.

Regarding `NC(=O)c1ccc2nc(-c3ccc(-c4nc5ccc(C(N)=O)cc5[nH]4)cc3)[nH]c2c1` [Compound 12, 2,2′-(1,4-phenylene)bis(1H-benzo[d]imidazole-6-carboxamide)], for the setting “Table L”, the IC50 was greater than 200 µM.

In turn, `N#Cc1ccc2nc(-c3ccc(-c4nc5ccc(C6=NCCN6)cc5[nH]4)cc3)[nH]c2c1` [Compound 13, 2-(4-(6-(4,5-dihydro-1H-imidazol-2-yl)-1H-benzo[d]imidazol-2-yl)phenyl)-1H-benzo[d]imidazole-6-carbonitrile] came in with an IC50 (Table L) of 48 µM. Take `c1cc2nc(-c3ccc(-c4nc5ccc(C6=NCCN6)cc5[nH]4)cc3)[nH]c2cc1C1=NCCN1` [Compound 14, 1,4-bis(6-(4,5-dihydro-1H-imidazol-2-yl)-1H-benzo[d]imidazol-2-yl)benzene]: inhibition (Table L) was half-maximal at 11 µM (IC50). Still for that read-out and setting: the value for `CN(C)CCNC(=O)c1ccc2nc(-c3ccc(-c4nc5ccc(C#N)cc5[nH]4)cc3)[nH]c2c1` [Compound 15] was 45 µM; that for `CCOC(CNC(=N)Nc1ccc2nc(-c3ccc(-c4nc5ccc(N)cc5[nH]4)cc3)[nH]c2c1)OCC` [Compound 17, 1-(2-(4-(5-amino-1H-benzo[d]imidazol-2-yl)phenyl)-1H-benzo[d]imidazol-5-yl)-3-(2,2-diethoxyethyl)guanidine] was 37 µM. Take `CCOC(CNC(=N)Nc1ccc2nc(-c3ccc(-c4nc5ccc(NC(=N)NCC(OCC)OCC)cc5[nH]4)cc3)[nH]c2c1)OCC` [Compound 18, 1,1′-(2,2′-(1,4-phenylene)bis(1H-benzo[d]imidazole-5,2-diyl))bis(3-(2,2-diethoxyethyl)guanidine)]: the IC50 (Table L) was determined as 35 µM. Take `Nc1ccc2nc(-c3ccc(-c4nc5ccc(Nc6ncc[nH]6)cc5[nH]4)cc3)[nH]c2c1` [Compound 19, 2-(4-(5-amino-1H-benzo[d]imidazol-2-yl)phenyl)-N-(1H-imidazol-2-yl)-1H-benzo[d]imidazol-5-amine]: the IC50 (Table L) was 34 µM.

With `c1cn(-c2ccc3nc(-c4ccc(-c5nc6ccc(-n7ccnc7)cc6[nH]5)cc4)[nH]c3c2)cn1` [Compound 20, 1,4-bis(6-(1H-imidazol-1-yl)-1H-benzo[d]imidazol-2-yl)benzene], the IC50 (Table L) is greater than 200 µM. Consider `Nc1ccc2nc(-c3ccc(-c4nc5ccc(Nc6ccccn6)cc5[nH]4)cc3)[nH]c2c1` [Compound 21, 2-(4-(5-amino-1H-benzo[d]imidazol-2-yl)phenyl)-N-(pyridin-2-yl)-1H-benzo[d]imidazol-5-amine], for which, under “Table L”, the IC50 amounted to 150 µM. With `c1ccc(Nc2ccc3nc(-c4ccc(-c5nc6ccc(Nc7ccccn7)cc6[nH]5)cc4)[nH]c3c2)nc1` [Compound 22, 2,2′-(1,4-phenylene)bis(N-(pyridin-2-yl)-1H-benzo[d]imidazol-5-amine)], for the setting “Table L”, the IC50 was 169 µM. As for `CC(C)(C)OC(=O)N1CCN=C1Nc1ccc2[nH]c(-c3ccc(-c4nc5cc(N)ccc5[nH]4)cc3)nc2c1` [Compound 23, tert-butyl 2-((2-(4-(5-amino-1H-benzo[d]imidazol-2-yl)phenyl)-1H-benzo[d]imidazol-5-yl)amino)-4,5-dihydro-1H-imidazole-1-carboxylate], the midpoint of inhibition (Table L), the IC50, lay at 55 µM. Consider `Nc1ccc2[nH]c(-c3ccc(-c4nc5cc(NC6=NCCN6)ccc5[nH]4)cc3)nc2c1` [Compound 24, 2-(4-(5-amino-1H-benzo[d]imidazol-2-yl)phenyl)-N-(4,5-dihydro-1H-imidazol-2-yl)-1H-benzo[d]imidazol-5-amine], for which the IC50 (Table L) came out at 35 µM. For the compound `N=C(NO)c1ccc2nc(-c3ccc(-c4nc5ccc(C(=N)NO)cc5[nH]4)cc3)[nH]c2c1` [Compound 25, 2,2′-(1,4-phenylene)bis(N-hydroxy-1H-benzo[d]imidazole-6-carboximidamide)], half-maximal inhibition (Table L) (IC50) required 144 µM. Regarding `N=C(N)c1ccc2nc(-c3ccc(-c4nc5ccc(C(=N)N)cc5[nH]4)cc3)[nH]c2c1` [Compound 26, 2,2′-(1,4-phenylene)bis(1H-benzo[d]imidazole-6-carboximidamide) acetate], the IC50 (Table L) was found to be 6.6 µM. `CNCCNC(=O)c1ccc2nc(-c3ccc(-c4nc5ccc(C(=O)NCCN(C)C)cc5[nH]4)cc3)[nH]c2c1` [Compound 27, N-(2-(dimethylamino)ethyl)-2-(4-(6-((2-(methylamino)ethyl)carbamoyl)-1H-benzo[d]imidazol-2-yl)phenyl)-1H-benzo[d]imidazole-6-carboxamide]: the IC50 (Table L) was found to be 12.3 µM. Under “Table L”, `CNCCNC(=O)c1ccc2nc(-c3ccc(-c4nc5ccc(C(=O)NCCNC)cc5[nH]4)cc3)[nH]c2c1` [Compound 28, 2,2′-(1,4-phenylene)bis(N-(2-(methylamino)ethyl)-1H-benzo[d]imidazole-6-carboxamide)] gave an IC50 of 12.3 µM. In the case of `CN(C)CCNC(=O)c1ccc2nc(-c3ccc(-c4nc5ccc(C(=O)NCCN)cc5[nH]4)cc3)[nH]c2c1` [Compound 29, N-(2-aminoethyl)-2-(4-(6-((2-(dimethylamino)ethyl)carbamoyl)-1H-benzo[d]imidazol-2-yl)phenyl)-1H-benzo[d]imidazole-6-carboxamide], 9.6 µM corresponded to half-maximal inhibition (Table L) (IC50). `NCCNC(=O)c1ccc2nc(-c3ccc(-c4nc5ccc(C(=O)NCCN)cc5[nH]4)cc3)[nH]c2c1` [Compound 30, 2,2′-(1,4-phenylene)bis(N-(2-aminoethyl)-1H-benzo[d]imidazole-6-carboxamide)] gave an IC50 (Table L) of 18.3 µM. As to `C[N+](C)(C)CCNC(=O)c1ccc2nc(-c3ccc(-c4nc5ccc(C(=O)NCC[N+](C)(C)C)cc5[nH]4)cc3)[nH]c2c1` [Compound 31, 2,2′-((2,2′-(1,4-phenylene)bis(1H-benzo[d]imidazole-6,6′-carbonyl))bis(azanediyl))bis(N,N,N-trimethylethanaminium) chloride], the IC50 (Table L) is 15.4 µM. `CN(C)CCCNC(=O)c1ccc2nc(-c3ccc(-c4nc5ccc(C(=O)NCCN(C)C)cc5[nH]4)cc3)[nH]c2c1` [Compound 35, N-(2-(dimethylamino)ethyl)-2-(4-(6-((3-(dimethylamino)propyl)carbamoyl)-1H-benzo[d]imidazol-2-yl)phenyl)-1H-benzo[d]imidazole-6-carboxamide] displayed an IC50 (Table L) of 6.2 µM.
